The values that follow are results of earlier work, collected in US20170218035A1, “COMPOSITIONS AND METHODS FOR TREATMENT WITH HEMOPEXIN” (Bayer HealthCare LLC, priority 2014, published 2017).

pKd: −log10 of the molar value. Where only a bound is given, the exact number is not on record here.

This data set has as its target T1, Hemopexin (plasma based glycoprotein) (Homo sapiens, UniProt P02790).
T1 sequence (P02790 24-462): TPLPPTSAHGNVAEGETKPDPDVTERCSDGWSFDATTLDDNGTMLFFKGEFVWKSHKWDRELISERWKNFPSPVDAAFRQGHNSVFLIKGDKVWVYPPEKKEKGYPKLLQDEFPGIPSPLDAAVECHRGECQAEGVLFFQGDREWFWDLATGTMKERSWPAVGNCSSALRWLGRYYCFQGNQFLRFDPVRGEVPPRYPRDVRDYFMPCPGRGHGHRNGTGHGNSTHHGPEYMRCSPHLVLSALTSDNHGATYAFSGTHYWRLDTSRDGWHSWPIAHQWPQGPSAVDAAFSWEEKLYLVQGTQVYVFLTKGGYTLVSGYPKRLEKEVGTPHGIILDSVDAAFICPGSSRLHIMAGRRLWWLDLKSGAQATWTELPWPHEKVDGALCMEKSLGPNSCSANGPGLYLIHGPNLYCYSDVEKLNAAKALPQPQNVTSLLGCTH
The conditions noted are these: highest known binding affinity for heme; reported value.

For `C=CC1=C(C)c2cc3[nH]c(cc4nc(cc5[nH]c(cc1n2)c(C)c5CCC(=O)O)C(CCC(=O)O)=C4C)c(C)c3C=C.[Fe]` [heme], the pKd is more than 12.00.

As a reminder, the pKd is the Kd on a negative log10 scale, so that one unit is a factor of ten.
